Reference: publication PMC3608651, “A Broad Profile of Co-Dominant Epitopes Shapes the Peripheral Mycobacterium tuberculosis Specific CD8+ T-Cell Immune Response in South African Patients with Active Tuberculosis” (PLoS ONE, 2013)
Read-outs that look alike come from different tables or passages of the source.

Assays:
Type in all cases: binding
[1] = biological target: HLA-C*07:01 (Homo sapiens, UniProt P10321, K90N/S123Y); conditions: duplicated experiments, positive binder >40%
[2] = biological target: T1, HLA-B*58:01 (Homo sapiens, UniProt P01889, A329T/C349S/D201E/D98Y/E176V/E187L/E204Q/E69T/G107R/I218V/I90N/K202T/L105A/L119I/N104I/N87E/Q89R/Q94S/R106L/R155S/R180L/R86G/S101N/S121R/S35A/S48A/T118I/V127L/V306I/V36M/Y140S/Y91M)
[3] = biological target: T1, HLA-B*58:01; conditions: duplicated experiments, positive binder >40%
[4] = biological target: HLA-A*68:01 (Homo sapiens, UniProt P04439, A269V/D185E/E176V/E277Q/E87N/F33Y/G231S/I121M/I166T/I218V/L180W/L300P/L318F/N151K/P208A/P217A/Q86R/R169H/T345S); conditions: duplicated experiments, positive binder >40%
[5] = biological target: T1, HLA-B*58:01; conditions: time points 0-8 h
[6] = biological target: HLA-A*24:02 (Homo sapiens, UniProt P04439, D101N/D140Y/D185E/E176V/E190D/F33S/G103R/G107R/I119L/I121M/I306V/K335N/L105A/L180Q/L300P/N151K/N90K/Q86E/Q94H/R106L/R138H/R89G/T104I/T345S/V100E/W191G/Y123F); conditions: duplicated experiments, positive binder >40%
[7] = biological target: HLA-B*07:02 (Homo sapiens, UniProt P01889); conditions: percent relative the binding of positive control peptide […]; duplicated experiments; positive binder >40%
[8] = biological target: HLA-A*02:01 (Homo sapiens, UniProt P04439, D140Y/D185E/D98H/E176V/E277Q/G131W/G231S/I119V/I121R/I166T/I218V/L300P/L318F/N151K/N90K/P208A/P217A/Q86G/Q94H/R138H/R169H/T345S); conditions: plate-bound monomer 0.5 µg/ml, duplicated experiments, positive binder >40%
[9] = biological target: HLA-A*30:01 (Homo sapiens, UniProt P04439, D140H/D185E/E176W/F33S/G80R/H175R/K168Q/R138E/R41S); conditions: duplicated experiments, positive binder >40%
[10] = biological target: T2, HLA-A*30:02 (Homo sapiens, UniProt P04439, D101N/D140H/D185E/E176R/F33S/G80R/H175R/K168Q/Q94H/R138E/R41S/V100E); conditions: duplicated experiments, positive binder >40%
[11] = biological target: T2, HLA-A*30:02
[12] = biological target: T2, HLA-A*30:02; conditions: time points 0-8 h
[13] = percent relative the binding of positive control peptide […]
[14] = peptide titrated 10−4 to 10−9 M
[15] = percent relative the binding of positive control peptide KYFDEHYEY
[16] = percent relative the binding of positive control peptide RYLKDQQLL
[17] = percent relative the binding of positive control peptide FLPSDFFPSV
[18] = percent relative the binding of positive control peptide IAMESIVIW
[19] = percent relative the binding of positive control peptide KTKDIVNGL
[20] = percent relative the binding of positive control peptide KIQNFRVYY
[21] = percent relative the binding of positive control peptide KTGGPIYKR

| Sequence | Bind C*07:01 [1, 13] [%] | Aff B*58:01 (ED50) [2] [nM] | Bind B*58:01 [3, 13] [%] | Bind A*68:01 [4, 13] [%] | O-rate B*58:01 (t1/2) [5] [h] | Bind A*24:02 [6, 13] [%] | Bind B*07:02 [7] [%] | Bind A*02:01 [8, 13] [%] | Bind A*30:01 [9, 13] [%] | Bind A*30:02 [10, 13] [%] | Aff A*30:02 (ED50) [11, 14] [M] | Bind C*07:01 [1, 15] [%] | Bind A*24:02 [6, 16] [%] | Bind A*02:01 [8, 17] [%] | Bind B*58:01 [3, 18] [%] | Bind A*30:01 [9, 19] [%] | Bind A*30:02 [10, 20] [%] | Bind A*68:01 [4, 21] [%] | O-rate A*30:02 (t1/2) [12] [h] | Aff A*30:02 (ED50) [11] |
| --- | --- | --- | --- | --- | --- | --- | --- | --- | --- | --- | --- | --- | --- | --- | --- | --- | --- | --- | --- | --- |
| YQAWQAQWN [Rv0288_51–59] | 0 | 2000 | 52 | 23 | 2.0 | – | – | – | – | – | – | – | – | – | – | – | – | – | – | – |
| QAALQSAWQ [Rv0288_36–44] | 7 | 50000 | 62 | 17 | 0.5 | – | – | – | – | – | – | – | – | – | – | – | – | – | – | – |
| SSTHEANTM [Rv0288_73–81] | 7 | 2000 | 41 | 0 | 0.8 | – | – | – | – | – | – | – | – | – | – | – | – | – | – | – |
| GITYQAWQA [Rv0288_48–56] | 0 | 90 | 46 | 0 | 0.2 | – | – | – | – | – | – | – | – | – | – | – | – | – | – | – |
| TYQAWQAQW [Rv0288_50–58] | 0 | 100 | 119 | 0 | 1.0 | – | – | – | – | – | – | – | – | – | – | – | – | – | – | – |
| AGCQTYKW E | 0 | 200 | 121 | 4 | 2 | 31 | 2 | 12 | 3 | 18 | – | – | – | – | – | – | – | – | – | – |
| SAWQGDTGI [Rv0288_41–49] | 12 | 30 | 46 | 30 | 0.6 | – | – | – | – | – | – | – | – | – | – | – | – | – | – | – |
| DTGITYQAW [Rv0288_46–54] | 0 | 1000 | 41 | 7 | 2.3 | – | – | – | – | – | – | – | – | – | – | – | – | – | – | – |
| GVQQKWDAT [Rv3875_53–61] | – | – | – | – | – | – | 10 | – | – | – | 3e-08 | 9 | 0 | 0 | 6 | 9 | 78 | 0 | 1.3 | – |
| AGQAMASTE [Rv3875_79–87] | – | – | – | – | – | – | 9 | – | – | – | 5e-09 | 28 | 0 | 0 | 11 | 20 | 58 | 13 | 2.3 | – |
| RAYHSMSST [Rv0288_67–75m1] | 0 | 20 | 32 | – | 0.4 | – | 14 | – | – | 7 | – | – | – | – | – | – | – | – | – | – |
| TGITYQAWQ [Rv0288_47–55] | 0 | 4000 | 40 | 8 | 0.8 | – | – | – | – | – | – | – | – | – | – | – | – | – | – | – |
| WGGSGSEAY [Rv3875_43–51] | – | – | – | – | – | – | 7 | – | – | – | 4e-07 | 21 | 0 | 3 | 2 | 18 | 89 | 2 | 1.1 | – |
| SAIQGNVTS [Rv3875_16–24] | – | – | – | – | – | – | 4 | – | – | – | 3e-08 | 12 | 15 | 1 | 12 | 11 | 67 | 29 | 0.9 | – |
| SAMILAAYH | 15 | – | 0 | 69 | – | 0 | 7 | 9 | 0 | 111 | – | – | – | – | – | – | – | – | 2.2 | 4e-08 M |
| VFNFPPNGT | 0 | – | 33 | 3 | – | 25 | 0 | 34 | 3 | 113 | – | – | – | – | – | – | – | – | 1.2 | 3e-05 M |
| AWGGSGSEA [Rv3875_42–50] | – | – | – | – | – | – | 6 | – | – | – | 8e-07 | 29 | 4 | 4 | 6 | 16 | 90 | 11 | 1.7 | – |
| CGKAGCQT Y | 5 | – | 35 | 60 | – | 32 | 8 | 44 | 28 | 138 | – | – | – | – | – | – | – | – | 3 | 8E -08 M |
| ATATELNNA [Rv3875_60–68] | – | – | – | – | – | – | 12 | – | – | – | 3e-07 | 0 | 0 | 31 | 0 | 0 | 67 | 0 | 3.8 | – |
| MTEQQWNFA [Rv3875_1–9] | – | – | – | – | – | – | 2 | – | – | – | 2e-08 | 0 | 0 | 13 | 2 | 0 | 52 | 25 | 1.4 | – |
| LQNLARTIS [Rv3875_69–77] | – | – | – | – | – | – | 10 | – | – | – | 1e-08 | 3 | 26 | 27 | 20 | 11 | 77 | 8 | 2.1 | – |
| MSQIMYNYP [Rv0288_1–9] | 10 | 4000 | 57 | 29 | 1.1 | – | – | – | – | – | – | – | – | – | – | – | – | – | – | – |
| MKGDLQSSL | 63 | – | 0 | 19 | – | 22 | 17 | 16 | 14 | 90 | – | – | – | – | – | – | – | – | 2.8 | 2e-05 M |
